This note sets out measurements from patent publication US20260355196A1, “INHIBITORS AND DEGRADERS OF PIP4K PROTEIN” (Larkspur Biosciences, Inc., priority 2023, published 2026).

This test addresses T1, PIP4K2C (Homo sapiens, UniProt Q8TBX8).
T1 sequence (Q8TBX8 1-421): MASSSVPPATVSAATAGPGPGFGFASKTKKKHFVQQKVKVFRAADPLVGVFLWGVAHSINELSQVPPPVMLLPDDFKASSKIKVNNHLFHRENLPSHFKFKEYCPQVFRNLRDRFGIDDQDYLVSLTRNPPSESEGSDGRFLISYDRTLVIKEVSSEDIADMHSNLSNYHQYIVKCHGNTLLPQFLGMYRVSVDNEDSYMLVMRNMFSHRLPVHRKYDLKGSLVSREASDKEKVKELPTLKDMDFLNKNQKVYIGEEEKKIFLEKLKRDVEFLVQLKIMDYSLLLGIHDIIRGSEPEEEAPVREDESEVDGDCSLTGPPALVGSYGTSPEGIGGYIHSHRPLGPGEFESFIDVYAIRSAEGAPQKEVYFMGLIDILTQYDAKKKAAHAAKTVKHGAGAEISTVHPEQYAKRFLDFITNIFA
Nature of the test: HiBiT PIP4K2C degradation assay in MOLT-4 cells (endogenous PIP4K2C C-terminally tagged with HiBiT). Also on record: untagged in primary human PBMCs and monocyte-derived dendritic cells. The following applies: 24 hours incubation, MOLT-4, top concentration 10 micromolar; read-out: HiBIT-degradation MOLT4 PIP4k2C 24 hours DC50. It is filed as cell-based. The procedure, abridged:
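DC50 derived by Hill fit of luminescence from Nano-Glo HiBiT lytic detection. Cells were HiBiT knock-in MOLT-4 (C-terminal tag on endogenous PIP4K2C), exposed 6 h or 24 h at 37 C to compound, top concentration 10 micromolar, 3-fold steps, 10 points, duplicates.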
For the compound `Cn1c(=O)n(C2CCC(=O)NC2=O)c2ccc(C3CCN(C4CCN(CC(=O)N5CCC(Nc6ncc(Cl)c(-c7cccc(-c8ccccc8)c7)n6)CC5)CC4)CC3)cc21` (stereo not drawn) [Compound 72, 3-(5-(1′-(2-(4-((4-([1,1′-biphenyl]-3-yl)-5-chloropyrimidin-2-yl)amino)piperidin-1-yl)-2-oxoethyl)-[1,4′-bipiperidin]-4-yl)-3-methyl-2-oxo-2,3-dihydro-1H-benzo[d]imidazol-1-yl)piperidine-2,6-dione], the half-maximal degradation concentration (DC50) was less than 500 nM.
To `Cn1c(=O)n(C2CCC(=O)NC2=O)c2ccc(C3CCN(CC4CCN(CC(=O)N5CCC[C@H](Nc6ncc(Cl)c(-c7cccc(-c8ccccc8)c7)n6)C5)CC4)CC3)cc21` (stereo partly drawn) [Compound 73, 3-(5-(1-((1-(2-((S)-3-((4-([1,1′-biphenyl]-3-yl)-5-chloropyrimidin-2-yl)amino)piperidin-1-yl)-2-oxoethyl)piperidin-4-yl)methyl)piperidin-4-yl)-3-methyl-2-oxo-2,3-dihydro-1H-benzo[d]imidazol-1-yl)piperidine-2,6-dione] belongs less than 500 nM.
To `O=C1CCC(Nc2ccc(C3CCN(CCN4CCC(C(=O)N5CCC(Nc6ncc(Cl)c(-c7cccc(-c8ccccc8)c7)n6)CC5)CC4)CC3)cc2)C(=O)N1` (stereo not drawn) [Compound 74, 3-((4-(1-(2-(4-(4-((4-([1,1′-biphenyl]-3-yl)-5-chloropyrimidin-2-yl)amino)piperidine-1-carbonyl)piperidin-1-yl)ethyl)piperidin-4-yl)phenyl)amino)piperidine-2,6-dione] belongs less than 500 nM; to `Cn1c(=O)n(C2CCC(=O)NC2=O)c2ccc(C3CCN(C4CCN(CC(=O)N5CCC[C@H](Nc6ncc(Cl)c(-c7cccc(-c8ccccc8)c7)n6)C5)CC4)CC3)cc21` (stereo partly drawn) [Compound 75, 3-(5-(1′-(2-((S)-3-((4-([1,1′-biphenyl]-3-yl)-5-chloropyrimidin-2-yl)amino)piperidin-1-yl)-2-oxoethyl)-[1,4′-bipiperidin]-4-yl)-3-methyl-2-oxo-2,3-dihydro-1H-benzo[d]imidazol-1-yl)piperidine-2,6-dione], less than 500 nM; to `O=C1CCC(N2Cc3cc(C4CCN(CCN5CCC(C(=O)N6CCC[C@H](Nc7ncc(Cl)c(-c8cccc(-c9ccccc9)c8)n7)C6)CC5)CC4)ccc3C2=O)C(=O)N1` (stereo partly drawn) [Compound 78], less than 500 nM.
For `O=C1CCC(N2Cc3cc(OC4CCN(C(=O)CN5CCC(C(=O)N6CCC(Nc7ncc(Cl)c(-c8cccc(-c9ccccc9)c8)n7)CC6)CC5)CC4)ccc3C2=O)C(=O)N1` (stereo not drawn) [Compound 83, 3-(5-((1-(2-(4-(4-((4-([1,1′-biphenyl]-3-yl)-5-chloropyrimidin-2-yl)amino)piperidine-1-carbonyl)piperidin-1-yl)acetyl)piperidin-4-yl)oxy)-1-oxoisoindolin-2-yl)piperidine-2,6-dione], the DC50 was less than 500 nM.
As for `O=C1CCC(Nc2ccc(N3CCC(N4CCN(CCC(=O)N5CCC(Nc6ncc(Cl)c(-c7cccc(-c8ccccc8)c7)n6)CC5)CC4)CC3)cc2)C(=O)N1` (stereo not drawn) [Compound 84, 3-((4-(4-(4-(3-(4-((4-([1,1′-biphenyl]-3-yl)-5-chloropyrimidin-2-yl)amino)piperidin-1-yl)-3-oxopropyl)piperazin-1-yl)piperidin-1-yl)phenyl)amino)piperidine-2,6-dione], the figure is less than 500 nM; as for `O=C1CCC(N2Cc3cc(OC4CCN(CC5CCN(CC(=O)N6CCC(Nc7ncc(Cl)c(-c8cccc(-c9ccccc9)c8)n7)CC6)CC5)CC4)ccc3C2=O)C(=O)N1` (stereo not drawn) [Compound 85, 3-(5-((1-((1-(2-(4-((4-([1,1′-biphenyl]-3-yl)-5-chloropyrimidin-2-yl)amino)piperidin-1-yl)-2-oxoethyl)piperidin-4-yl)methyl)piperidin-4-yl)oxy)-1-oxoisoindolin-2-yl)piperidine-2,6-dione], less than 500 nM.
To `O=C1CCC(N2Cc3cc(C4CCN(C5CCN(CCC(=O)N6CCC(Nc7ncc(Cl)c(-c8cccc(-c9ccccc9)c8)n7)CC6)CC5)CC4)ccc3C2=O)C(=O)N1` (stereo not drawn) [Compound 86, 3-(5-(1′-(3-(4-((4-([1,1′-biphenyl]-3-yl)-5-chloropyrimidin-2-yl)amino)piperidin-1-yl)-3-oxopropyl)-[1,4′-bipiperidin]-4-yl)-1-oxoisoindolin-2-yl)piperidine-2,6-dione] belongs 500 to 1000 nM; to `O=C1CCC(N2Cc3cc(OC4CCN(C5CCN(CC(=O)N6CCC(Nc7ncc(Cl)c(-c8cccc(-c9ccccc9)c8)n7)CC6)CC5)CC4)ccc3C2=O)C(=O)N1` (stereo not drawn) [Compound 87, 3-(5-((1′-(2-(4-((4-([1,1′-biphenyl]-3-yl)-5-chloropyrimidin-2-yl)amino)piperidin-1-yl)-2-oxoethyl)-[1,4′-bipiperidin]-4-yl)oxy)-1-oxoisoindolin-2-yl)piperidine-2,6-dione], less than 500 nM; to `O=C1CCC(N2Cc3cc(C4CCN(CCN5CCC(C(=O)N6CCC(Nc7ncc(Cl)c(-c8cccc(-c9ccccc9)c8)n7)CC6)CC5)CC4)ccc3C2=O)C(=O)N1` (stereo not drawn) [Compound 88, 3-(5-(1-(2-(4-(4-((4-([1,1′-biphenyl]-3-yl)-5-chloropyrimidin-2-yl)amino)piperidine-1-carbonyl)piperidin-1-yl)ethyl)piperidin-4-yl)-1-oxoisoindolin-2-yl)piperidine-2,6-dione], less than 500 nM.
As for `O=C1CCC(N2Cc3cc(OC4CCN(CCN5CCC(C(=O)N6CCC(Nc7ncc(Cl)c(-c8cccc(-c9ccccc9)c8)n7)CC6)CC5)CC4)ccc3C2=O)C(=O)N1` (stereo not drawn) [Compound 89, 3-(5-((1-(2-(4-(4-((4-([1,1′-biphenyl]-3-yl)-5-chloropyrimidin-2-yl)amino)piperidine-1-carbonyl)piperidin-1-yl)ethyl)piperidin-4-yl)oxy)-1-oxoisoindolin-2-yl)piperidine-2,6-dione], the figure is less than 500 nM.
As for `O=C1CCC(N2Cc3cc(OC4CCN(C5CCN(CCC(=O)N6CCC(Nc7ncc(Cl)c(-c8cccc(-c9ccccc9)c8)n7)CC6)CC5)CC4)ccc3C2=O)C(=O)N1` (stereo not drawn) [Compound 90, 3-(5-((1′-(3-(4-((4-([1,1′-biphenyl]-3-yl)-5-chloropyrimidin-2-yl)amino)piperidin-1-yl)-3-oxopropyl)-[1,4′-bipiperidin]-4-yl)oxy)-1-oxoisoindolin-2-yl)piperidine-2,6-dione], the DC50 was less than 500 nM.
To `Cn1c(=O)n(C2CCC(=O)NC2=O)c2ccc(C3CCN(C4CCCN(CC(=O)N5CCC(Nc6ncc(Cl)c(-c7cccc(-c8ccc(F)cc8)c7)n6)CC5)C4)CC3)cc21` (stereo not drawn) [Compound 275, 3-(5-(1′-(2-(4-((5-chloro-4-(4′-fluoro-[1,1′-biphenyl]-3-yl)pyrimidin-2-yl)amino)piperidin-1-yl)-2-oxoethyl)-[1,3′-bipiperidin]-4-yl)-3-methyl-2-oxo-2,3-dihydro-1H-benzo[d]imidazol-1-yl)piperidine-2,6-dione] belongs less than 500 nM.
To `Cn1c(=O)n(C2CCC(=O)NC2=O)c2ccc(C3CCN(CC4CCN(CC(=O)N[C@H]5CC[C@H](Nc6ncc(Cl)c(-c7cccc(-c8ccc(F)cc8)c7)n6)CC5)CC4)CC3)cc21` (stereo partly drawn) [Compound 276, trans-N-(4-((5-chloro-4-(4′-fluoro-[1,1′-biphenyl]-3-yl)pyrimidin-2-yl)amino)cyclohexyl)-2-(4-((4-(1-(2,6-dioxopiperidin-3-yl)-3-methyl-2-oxo-2,3-dihydro-1H-benzo[d]imidazol-5-yl)piperidin-1-yl)methyl)piperidin-1-yl)acetamide] belongs less than 500 nM; to `Cn1nc(C2CCC(=O)NC2=O)c2ccc(C3CCN(CC4CCN(CC(=O)N5CCC(Nc6ncc(Cl)c(-c7cccc(-c8ccc(F)cc8)c7)n6)CC5)CC4)CC3)cc21` (stereo not drawn) [Compound 277, 3-(6-(1-((1-(2-(4-((5-chloro-4-(4′-fluoro-[1,1′-biphenyl]-3-yl)pyrimidin-2-yl)amino)piperidin-1-yl)-2-oxoethyl)piperidin-4-yl)methyl)piperidin-4-yl)-1-methyl-1H-indazol-3-yl)piperidine-2,6-dione], 500 to 1000 nM.
In the case of `Cn1nc(C2CCC(=O)NC2=O)c2ccc(C3CCN(C(=O)C4(O)CCN(CC(=O)N5CCC(Nc6ncc(Cl)c(-c7cccc(-c8ccc(F)cc8)c7)n6)CC5)CC4)CC3)cc21` (stereo not drawn) [Compound 278, 3-(6-(1-(1-(2-(4-((5-chloro-4-(4′-fluoro-[1,1′-biphenyl]-3-yl)pyrimidin-2-yl)amino)piperidin-1-yl)-2-oxoethyl)-4-hydroxypiperidine-4-carbonyl)piperidin-4-yl)-1-methyl-1H-indazol-3-yl)piperidine-2,6-dione], the DC50 was less than 500 nM.
As for `Cn1c(=O)n(C2CCC(=O)NC2=O)c2ccc(C3CCN(CCC4CCN(C(=O)[C@@H]5CCC[C@H](Nc6ncc(Cl)c(-c7cccc(-c8ccccc8)c7)n6)C5)CC4)CC3)cc21` (stereo partly drawn) [Compound 280, 3-(5-(1-(2-(1-((1R,3S)-3-((4-([1,1′-biphenyl]-3-yl)-5-chloropyrimidin-2-yl)amino)cyclohexane-1-carbonyl)piperidin-4-yl)ethyl)piperidin-4-yl)-3-methyl-2-oxo-2,3-dihydro-1H-benzo[d]imidazol-1-yl)piperidine-2,6-dione], the figure is less than 500 nM.
